Patent US20220127297A1, “Novel Antibacterial 3"-Derivatives Of 4,6-Disubstituted 2,5-Dideoxystreptamine Aminoglycoside Antibiotics” (AGILeBiotics B.V., priority 2018, published 2022)
In brackets after ≈: the same amount, converted by molar mass.

System: E. coli (APH(3′)IIIa)
Assay: MIC 50, broth micro-dilution, E. coli expressing APH(3′)IIIa
Type: cell-based, Escherichia coli
Conditions: ATCC25922 harboring plasmid encoding APH(3′)IIIa
Procedure: Plasmid transformation. Approximately 500 ng of the pET-9b(+) (Cat. No. 69432-3, Merck), pAT21-1 (provided by Prof. Dr. Patrice Courvalin, M.D., Pasteur Institute, France; prepared according to Trieu-Cuot et. al, Mol. Gen. Genet. 198(2), 348 (1985)), pBluescript::AAC(6′)-Ie/APH(2″)-Ia (provided by Prof. Dr. Sergei Vakulenko, M.D., University of Notre Dame, Ind., USA; prepared according to S. B. Vakulenko et. al., J. Biol. Chem. 287 (52), 43262 (2012)), pBlue_lpp_aacC3_rrnC and pSET152 (Cat. No. PVT3395, Life Science Market; prepared according to Bierman et al., Gene 116 (1), 43 (1992)) plasmids, encoding APH(3′)-Ia (SEQ ID NO:2), APH(3′)-IIIa (SEQ ID NO:3), AAC(6′)Ie-APH(2″)-Ia (SEQ ID NO:4), AAC(3)-III (SEQ ID NO:1), and AAC(3)-IV (SEQ ID NO:5) respectively, were individually incubated in a vial of competent cells for 15 min on ice. The cells were subsequently heated to 42° C. for 90 s, and cooled on ice for 1 min. After addition of 900 μL LB, the cells were incubated for 1 h at 37° C. and 200 rpm. Cells were plated on LB-agar supplemented with 50 μg/mL KanaA and incubated for 18 h at 37° C. The next day, a single colony was inoculated in 5 mL LB supplemented with 50 μg/mL and grown for 18 h at 37° C. and 200 rpm. A 200 μL sample of each culture was diluted with 200 μL of 40% v/v glycerol in water, and stored at −80° C. The plasmid was purified from the remaining culture using the Plasmid Miniprep kit. Plasmid DNA was investigated by Eurofins Genomics (Germany) to confirm the identity of the aminoglycoside resistance genes.
3.1 Against E. coli Strains
Tested reference compounds. Amikacin sulfate (Cat. No. 01693, Chem-Impex), Gentamicin sulfate (Cat. No. G4918, Sigma Aldrich).
Microbial strains. E. coli ATCC 25922, E. coli ATCC 25922/pET-9b(+), E. coli ATCC 25922/pAT21-1, E. coli ATCC 25922/pBluescript::AAC(6′)-Ie/APH(2″)-Ia, E. coli ATCC 25922/pBlue_lpp_aacC3_rrnC, E. coli ATCC 25922/pSET152.
Culture media and equipment. BBL™ Mueller Hinton Broth 2 (Lot. BCBW1143, Cat. No. 70192, Sigma); Kanamycin A (Cat. No. A1493, AppliChem); 96-well deep well plate, 1 mL (Cat. No. 0030506.200, Eppendorf); Plate lids (Cat. No. 0030131.525, Eppendorf); 96-well plate, F-bottom (Cat. No. 781602, Brand; Incubator, Infors Multitron Pro); Laminar flow (Heraeus KS12); UV/VIS meter (Eppendorf BioPhotometer Plus); Platereader (Tecan Sunrise).
Compound preparation. Compounds were prepared in MH2 media at a concentration of 5 mM and stored at 4° C. For testing, solutions of 128 μM were prepared in MH2. Out of these working solutions, 400 μL was transferred to wells in the first column of 96-well deep well plates. Each compound was transferred in triplicate. Plates were previously filled with 200 μL of MH2 media in all wells except for the wells in the first column. After compound and antibiotic addition, the compounds were serial two-fold diluted by transferring 200 μL from the first to the second column, then from the second to the third column and so on. Finally, 200 μL was removed from the last column.
Inoculum preparation. Microorganisms used were all revived from 20% glycerol (40% v/v glycerol in water was diluted with MH2) storage at −80° C. by inoculating them in 5 mL MH2. inoculums of E. coli containing a plasmid were selected for by adding 50 μg/mL KanaA. The Inoculums were grown to an optical density (measured by UV/Vis spectroscopy) of 0.6-0.8 at 600 nm. Out of these suspensions, actual inoculums were prepared by diluting them to an optical density (OD) of 0.1 in MH2 media. From these inoculums, 200 μL was transferred to each well, resulting in a final compound concentration range of 64 μM-31.3 nM. All plates were incubated at 900 rpm and 70% rH for 18 h at 37° C.
MIC determination. After 18 h of growth, 200 μL was transferred to a 96-well F-bottom plate. The optical density was determined by a plate reader at 600 nm, with 10 s shaking before reading. Triplicate measurements were averaged, and a growth curve was plotted in Microsoft Excel. […]

SMILES | MIC50 [µM]
NCCC(O)C(=O)NC1CC(N)C(OC2OC(CN)C(O)C(O)C2N)C(O)C1OC1OC(CO)C(O)C(N)C1O (centres unmarked) [ABX4001, KanaB-AHB] | 8 to 16
N=C(N)NC1[C@@H](O)C(OC2[C@@H](F)[C@H](O[C@H]3OC(CN)[C@@H](O)[C@H](O)C3N)C(N)C[C@H]2NC(=O)[C@@H](O)CCN)O[C@H](CO)[C@H]1O (some centres unmarked) [ABX4006, KanaB-AHB-F-Gua] | 4 to 8
N=C(N)NC1[C@@H](O)C(OC2[C@@H](O)[C@H](O[C@H]3OC(CN)[C@@H](O)CC3N)C(N)C[C@H]2NC(=O)[C@@H](O)CCN)O[C@H](CO)[C@H]1O (some centres unmarked) [ABX5005, Tobra-AHB-Gua] | 2 to 4
NCC[C@H](O)C(=O)N[C@@H]1CC(N)[C@@H](O[C@H]2OC(CN)[C@@H](O)[C@@H](O)C2N)[C@H](O)C1OC1O[C@H](CO)[C@@H](O)C(N)[C@H]1O (stereo partly drawn) [ABX4002, 3′Epi-KanaB-AHB] | 8 (≈ 4.68 µg/mL)
N=C(N)N[C@@H]1[C@@H](O)[C@@H](O[C@@H]2[C@@H](O)[C@H](O[C@H]3O[C@H](CN)[C@@H](O)[C@@H](O)[C@H]3N)[C@@H](N)C[C@H]2NC(=O)[C@@H](O)CCN)O[C@H](CO)[C@H]1O [ABX4005, 3′Epi-KanaB-AHB-Gua] | 8 to 16
N=C(N)NC1[C@@H](O)C(OC2[C@@H](F)[C@H](O[C@H]3OC(CN)[C@@H](O)[C@H](O)C3N)C(N)C[C@H]2NC(=O)[C@@H](O)CCN)O[C@H](CO)[C@H]1O (stereo partly drawn) [ABX4004, 3′epi-KanaB-AHB-F-Gua] | 1 to 2
N=C(N)NC1[C@@H](O)C(OC2[C@@H](O)[C@H](O[C@H]3OC(CN)[C@@H](O)[C@H](O)C3N)C(N)C[C@H]2NC(=O)[C@@H](O)CCN)O[C@H](CO)[C@H]1O (some centres unmarked) [ABX4009, KanaB-AHB-Gua] | 64 (≈ 40.1 µg/mL)
NCC[C@H](O)C(=O)N[C@@H]1CC(N)[C@@H](O[C@H]2OC(CN)[C@@H](O)CC2N)[C@H](F)C1OC1O[C@H](CO)[C@@H](O)C(N)[C@H]1O (some centres unmarked) [ABX5024, Tobra-AHB-F] | 1 (≈ 0.571 µg/mL)
NCC[C@H](O)C(=O)N[C@@H]1CC(N)[C@@H](O[C@H]2OC(CN)[C@@H](O)[C@@H](O)C2N)[C@H](F)C1OC1O[C@H](CO)[C@@H](O)C(N)[C@H]1O (stereo partly drawn) [ABX4003, 3′Epi-KanaB-AHB-F] | 8 (≈ 4.69 µg/mL)
NCCC(O)C(=O)NC1CC(N)C(OC2OC(CN)C(O)C(O)C2O)C(F)C1OC1OC(CO)C(O)C(N)C1O (stereo not drawn) [ABX3005, 3′Epi-KanaA-AHB-F] | 4 to 8
NCC[C@H](O)C(=O)N[C@@H]1C[C@H](N)[C@@H](O[C@H]2O[C@H](CN)[C@@H](O)[C@@H](O)[C@H]2O)[C@H](O)[C@H]1O[C@H]1O[C@H](CO)[C@@H](O)[C@H](N)[C@H]1O [ABX3002, 3′Epi-KanaA-AHB] | 16 to 32

Same assay, conditions: Escherichia coli, ATCC25922, ATCC25922 harboring plasmid encoding APH(3′)IIIa

SMILES | MIC50 [µM]
N=C(NCCN)NC1C(O)[C@@H](CO)OC(OC2C(F)[C@H](O[C@H]3OC(CN)[C@@H](O)CC3N)C(N)C[C@H]2NC(=O)[C@@H](O)CCN)[C@@H]1O (some centres unmarked) [ABX5020, Tobra-AHB-F-Gua-2-amino-ethyl] | 0.5 (≈ 0.328 µg/mL)
N=C(NC[C@@H]1CCNC1)NC1[C@@H](O)C(OC2[C@@H](F)[C@H](O[C@H]3OC(CN)[C@@H](O)CC3N)C(N)C[C@H]2NC(=O)[C@@H](O)CCN)O[C@H](CO)[C@H]1O (stereo partly drawn) [ABX5039, Tobra-AHB-F-Gua (R) pyrrolidine-3-ylmethyl] | 0.25 (≈ 0.174 µg/mL)
N=C(NCCO)NC1[C@@H](O)C(OC2[C@@H](F)[C@H](O[C@H]3OC(CN)[C@@H](O)CC3N)C(N)C[C@H]2NC(=O)[C@@H](O)CCN)O[C@H](CO)[C@H]1O (some centres unmarked) [ABX5029, Tobra-AHB-F-Gua 2-hydroxy-ethyl] | 0.5 (≈ 0.328 µg/mL)
N=C(NCCCO)NC1[C@@H](O)C(OC2[C@@H](F)[C@H](O[C@H]3OC(CN)[C@@H](O)CC3N)C(N)C[C@H]2NC(=O)[C@@H](O)CCN)O[C@H](CO)[C@H]1O (some centres unmarked) [ABX5041, Tobra-AHB-F-Gua 3-hydroxy-propyl] | 0.5 (≈ 0.335 µg/mL)
N=C(NCC1CC1)NC1[C@@H](O)C(OC2[C@@H](F)[C@H](O[C@H]3OC(CN)[C@@H](O)CC3N)C(N)C[C@H]2NC(=O)[C@@H](O)CCN)O[C@H](CO)[C@H]1O (some centres unmarked) [ABX5027, Tobra-AHB-F-Gua cyclopropylmethyl] | 0.25 to 0.5 (≈ 0.167 to 0.333 µg/mL)
N=C(NC[C@@H]1CNCCO1)NC1[C@@H](O)C(OC2[C@@H](F)[C@H](O[C@H]3OC(CN)[C@@H](O)CC3N)C(N)C[C@H]2NC(=O)[C@@H](O)CCN)O[C@H](CO)[C@H]1O (stereo partly drawn) [ABX5040, Tobra-AHB-F-Gua (S) morpholin-2-yl methyl] | 0.25 (≈ 0.178 µg/mL)
C[C@@H](N)CCNC(=N)NC1[C@@H](O)C(OC2[C@@H](F)[C@H](O[C@H]3OC(CN)[C@@H](O)CC3N)C(N)C[C@H]2NC(=O)[C@@H](O)CCN)O[C@H](CO)[C@H]1O (stereo partly drawn) [ABX5047, Tobra-AHB-F-Gua (R) 3-amino-butyl] | 0.25 (≈ 0.171 µg/mL)
N=C(NC[C@H]1CCNC1)NC1[C@@H](O)C(OC2[C@@H](F)[C@H](O[C@H]3OC(CN)[C@@H](O)CC3N)C(N)C[C@H]2NC(=O)[C@@H](O)CCN)O[C@H](CO)[C@H]1O (stereo partly drawn) [ABX5042, Tobra-AHB-F-Gua (S) pyrrolidine-3-ylmethyl] | 0.25 (≈ 0.174 µg/mL)
N=C(NC[C@H]1CNCCO1)NC1[C@@H](O)C(OC2[C@@H](F)[C@H](O[C@H]3OC(CN)[C@@H](O)CC3N)C(N)C[C@H]2NC(=O)[C@@H](O)CCN)O[C@H](CO)[C@H]1O (stereo partly drawn) [ABX5043, Tobra-AHB-F-Gua (R) morpholin-2-yl methyl] | 0.25 (≈ 0.178 µg/mL)
N=C(N)NC1C(O)[C@@H](CO)OC(OC2C(F)[C@H](O[C@H]3OC(CN)[C@@H](O)CC3N)C(N)C[C@H]2NC(=O)[C@@H](O)CCN)[C@@H]1O (some centres unmarked) [ABX5006, Tobra-AHB-F-Gua] | < 0.25
N=C(NCC1CCCO1)NC1[C@@H](O)C(OC2[C@@H](F)[C@H](O[C@H]3OC(CN)[C@@H](O)CC3N)C(N)C[C@H]2NC(=O)[C@@H](O)CCN)O[C@H](CO)[C@H]1O (some centres unmarked) [ABX5046, Tobra-AHB-F-Gua tetrahydrofuran-2-yl methyl] | 0.5 (≈ 0.348 µg/mL)
N=C(NC[C@@H]1CCCN1)NC1[C@@H](O)C(OC2[C@@H](F)[C@H](O[C@H]3OC(CN)[C@@H](O)CC3N)C(N)C[C@H]2NC(=O)[C@@H](O)CCN)O[C@H](CO)[C@H]1O (stereo partly drawn) [ABX5026, Tobra-AHB-F-Gua (S) pyrrolidine-2-yl-methyl] | 0.25 (≈ 0.174 µg/mL)
N=C(NCCCN)NC1[C@@H](O)C(OC2[C@@H](F)[C@H](O[C@H]3OC(CN)[C@@H](O)CC3N)C(N)C[C@H]2NC(=O)[C@@H](O)CCN)O[C@H](CO)[C@H]1O (some centres unmarked) [ABX5030, Tobra-AHB-F-Gua-3-amino-propyl] | 0.25 (≈ 0.167 µg/mL)
N=C(NCC1CCOC1)NC1[C@@H](O)C(OC2[C@@H](F)[C@H](O[C@H]3OC(CN)[C@@H](O)CC3N)C(N)C[C@H]2NC(=O)[C@@H](O)CCN)O[C@H](CO)[C@H]1O (some centres unmarked) [ABX5051, Tobra-AHB-F-Gua tetrahydrofuran-3-yl methyl] | 0.5 (≈ 0.348 µg/mL)
CNCCNC(=N)NC1[C@@H](O)C(OC2[C@@H](F)[C@H](O[C@H]3OC(CN)[C@@H](O)CC3N)C(N)C[C@H]2NC(=O)[C@@H](O)CCN)O[C@H](CO)[C@H]1O (some centres unmarked) [ABX5038, Tobra-AHB-F-Gua 2-(methylamino)ethyl] | 0.25 (≈ 0.167 µg/mL)
